# Read-outs that look alike come from different tables or passages of the source.
# Tests used:
# H-322 Lung Carcinoma = test: Cytotoxicity (growth inhibition), H-322
# Source text: (§1) The value of the ratio Ti/Pt represents the relative activity of TPE as compared with that of cis-platinum.
# (§2) The excipient can serve as an agent for promoting absorption of the medicament by the body or as formulation auxiliary, sweetener, flavouring agent, colourant or preservative. […] The novel titanocene derivatives, according to the present invention, can be prepared from common chemical reagents using standard equipment. It should be realized, that the Examples for their preparations presented hereinafter are only for illustration and many other routes may be conceived for their syntheses.
# Molt-4 T-cell Leukemia = test: Cytotoxicity (growth inhibition), Molt-4; conditions: for cytotoxicity (log.): molt-4 cells
# Source text: as §1, §2
# HT-29 Colon Carcinoma = test: Cytotoxicity (growth inhibition), HT-29
# Source text: as §1, §2
# [1] = system: Ovcar-3 Ovarian Carcinoma; test: Cytotoxicity (growth inhibition), Ovcar-3
# Source text: as §1, §2
# MCF-7 Breast Cancer = test: Cytotoxicity (growth inhibition), MCF-7
# Source text: as §1, §2
# [2] = system: Capan 1 Pancreas Carcinoma; test: Cytotoxicity (growth inhibition), Capan 1
# Source text: as §1, §2
# HL-60 B-cell Leukemia = test: Cytotoxicity (growth inhibition), HL-60
# Source text: as §1, §2
# NHDF Normal Human Skin = test: Cytotoxicity (growth inhibition), NHDF
# Source text: as §1, §2
# [3] = system: HMEC Normal Human Mammary; test: Cytotoxicity (growth inhibition), HMEC
# Source text: as §1, §2
# [4] = system: NHEK Normal Keratino Epithelial; test: Cytotoxicity (growth inhibition), NHEK
# Source text: as §1, §2
# P-388 Mouse Leukemia = test: Cytotoxicity (growth inhibition), P-388
# Source text: as §1, §2
# SK-Mel-28 Melanoma = test: Cytotoxicity (growth inhibition), SK-Mel-28
# Source text: as §1, §2
# UCLA-P3 Lung Carcinoma = test: Cytotoxicity (growth inhibition), UCLA-P3
# Source text: as §1, §2
# [5] = system: CHO Chinese Hamstead Ovary; test: Cytotoxicity (growth inhibition), CHO
# Source text: as §1, §2
# tumor = conditions: prior art; cited from earlier work
compound,measurement,setting,value
"C[N+](C)(C)CCOC(=O)c1ccc([O-])cc1.C[N+](C)(C)CCOC(=O)c1ccc([O-])cc1.[Ti+4].c1cc[cH-]c1.c1cc[cH-]c1 [TCE, Bis[4-(2-trimethylammono)ethoxycarbonylphenolato]bis(n^5-cyclopentadienyl)titanium(IV)]",cytotoxicity (log.),H-322 Lung Carcinoma; h-322 cells,-4.00 log. (M)
same,cytotoxicity (log.),Molt-4 T-cell Leukemia,-4.00 log. (M)
same,cytotoxicity (log.),HT-29 Colon Carcinoma; ht-29 cells,-4.00 log. (M)
same,cytotoxicity (log.),[1]; ovcar-3 cells,-4.00 log. (M)
same,cytotoxicity (log.),MCF-7 Breast Cancer; mcf-7 cells,-4.30 log. (M)
same,cytotoxicity (log.),[2]; capan 1 cells,-4.00 log. (M)
"CCOC(=O)c1ccc([O-])cc1.CCOC(=O)c1ccc([O-])cc1.[Ti+4].c1cc[cH-]c1.c1cc[cH-]c1 [TEE-1, Bis(4-ethoxycarbonylphenolato)bis(n^5-cyclopentadienyl)titanium(IV)]",cytotoxicity (log.),HL-60 B-cell Leukemia; hl-60 cells,-5.51 log. (M)
same,cytotoxicity (log.),"NHDF Normal Human Skin; human, nhdf cells",-4.89 log. (M)
same,cytotoxicity (log.),H-322 Lung Carcinoma; h-322 cells,-5.80 log. (M)
same,cytotoxicity (log.),Molt-4 T-cell Leukemia,-7.00 log. (M)
same,cytotoxicity (log.),HT-29 Colon Carcinoma; ht-29 cells,-5.20 log. (M)
same,cytotoxicity (log.),"[3]; human, hmec cells",-6.11 log. (M)
same,cytotoxicity (log.),"[4]; human, nhek cells",-5.80 log. (M)
same,cytotoxicity (log.),P-388 Mouse Leukemia; p-388 cells,-4.89 log. (M)
same,cytotoxicity (log.),SK-Mel-28 Melanoma; sk-mel-28 cells,-5.51 log. (M)
same,cytotoxicity (log.),[1]; ovcar-3 cells,-5.20 log. (M)
same,cytotoxicity (log.),MCF-7 Breast Cancer; mcf-7 cells,-5.80 log. (M)
same,cytotoxicity (log.),UCLA-P3 Lung Carcinoma; ucla-p3 cells,-5.20 log. (M)
same,cytotoxicity (log.),[2]; capan 1 cells,-5.51 log. (M)
same,cytotoxicity (log.),[5]; cho cells,-4.60 log. (M)
"COCCOCCOC(=O)c1ccc([O-])cc1.COCCOCCOC(=O)c1ccc([O-])cc1.[Ti+4].c1cc[cH-]c1.c1cc[cH-]c1 [TEG, Bis[4-(2-(2-methoxyethoxy)ethoxy]carbonylphenolato]bis(n^5-cyclopentadienyl)titanium(IV)]",cytotoxicity (log.),Molt-4 T-cell Leukemia,-4.00 log. (M)
same,cytotoxicity (log.),[1]; ovcar-3 cells,-4.00 log. (M)
"COCCOC(=O)c1ccc([O-])cc1.COCCOC(=O)c1ccc([O-])cc1.[Ti+4].c1cc[cH-]c1.c1cc[cH-]c1 [TMEM, Bis[4-(2-methoxy)ethoxycarbonylphenolato]bis(n^5-cyclopentadienyl)titanium(IV)]",cytotoxicity (log.),HL-60 B-cell Leukemia; hl-60 cells,-4.60 log. (M)
same,cytotoxicity (log.),"NHDF Normal Human Skin; human, nhdf cells",-4.30 log. (M)
same,cytotoxicity (log.),H-322 Lung Carcinoma; h-322 cells,-4.89 log. (M)
same,cytotoxicity (log.),Molt-4 T-cell Leukemia,-7.00 log. (M)
same,cytotoxicity (log.),HT-29 Colon Carcinoma; ht-29 cells,-4.60 log. (M)
same,cytotoxicity (log.),"[3]; human, hmec cells",-4.60 log. (M)
same,cytotoxicity (log.),SK-Mel-28 Melanoma; sk-mel-28 cells,-4.60 log. (M)
same,cytotoxicity (log.),[1]; ovcar-3 cells,-4.60 log. (M)
same,cytotoxicity (log.),MCF-7 Breast Cancer; mcf-7 cells,-4.89 log. (M)
same,cytotoxicity (log.),[2]; capan 1 cells,-4.89 log. (M)
same,cytotoxicity (log.),[5]; cho cells,-4.30 log. (M)
"COC(=O)c1ccc([O-])cc1.COC(=O)c1ccc([O-])cc1.[Ti+4].c1cc[cH-]c1.c1cc[cH-]c1 [TPE, Bis(4-methoxycarbonylphenolato)bis(n^5-cyclopentadienyl)titanium(IV)]",ratio Ti/Pt,"HL-60 B-cell Leukemia; HL-60, relative activity of TPE as compared with cis-platinum",2
same,IC50,HL-60 B-cell Leukemia; hl-60 cells,3.1 µM
same,cytotoxicity (log.),HL-60 B-cell Leukemia; hl-60 cells,-5.70 log. (M)
same,ratio Ti/Pt,"NHDF Normal Human Skin; NHDF, relative activity of TPE as compared with cis-platinum",20
same,CC50,"NHDF Normal Human Skin; human, nhdf cells",1.6 µM
same,cytotoxicity (log.),"NHDF Normal Human Skin; human, nhdf cells",-5.41 log. (M)
same,ratio Ti/Pt,"H-322 Lung Carcinoma; H-322, relative activity of TPE as compared with cis-platinum",100
same,IC50,H-322 Lung Carcinoma; h-322 cells,0.63 µM
same,cytotoxicity (log.),H-322 Lung Carcinoma; h-322 cells,-6.20 log. (M)
same,ratio Ti/Pt,"Molt-4 T-cell Leukemia; Molt-4, relative activity of TPE as compared with cis-platinum",10
same,cytotoxicity (log.),Molt-4 T-cell Leukemia,-6.00 log. (M)
same,ratio Ti/Pt,"HT-29 Colon Carcinoma; HT-29, relative activity of TPE as compared with cis-platinum",200
same,IC50,HT-29 Colon Carcinoma; ht-29 cells,3.9 µM
same,cytotoxicity (log.),HT-29 Colon Carcinoma; ht-29 cells,-5.41 log. (M)
same,ratio Ti/Pt,"[3]; HMEC, relative activity of TPE as compared with cis-platinum",20
same,CC50,"[3]; human, hmec cells",3.1 µM
same,cytotoxicity (log.),"[3]; human, hmec cells",-5.70 log. (M)
same,ratio Ti/Pt,"[4]; NHEK, relative activity of TPE as compared with cis-platinum",200
same,CC50,"[4]; human, nhek cells",3.1 µM
same,cytotoxicity (log.),"[4]; human, nhek cells",-5.51 log. (M)
same,IC50,P-388 Mouse Leukemia; p-388 cells,3.9 µM
same,cytotoxicity (log.),P-388 Mouse Leukemia; p-388 cells,-5.41 log. (M)
same,ratio Ti/Pt,"SK-Mel-28 Melanoma; SK-Mel-28, relative activity of TPE as compared with cis-platinum",10
same,IC50,SK-Mel-28 Melanoma; sk-mel-28 cells,1.6 µM
same,cytotoxicity (log.),SK-Mel-28 Melanoma; sk-mel-28 cells,-5.41 log. (M)
same,ratio Ti/Pt,"[1]; Ovcar-3, relative activity of TPE as compared with cis-platinum",10
same,IC50,[1]; ovcar-3 cells,6.3 µM
same,cytotoxicity (log.),[1]; ovcar-3 cells,-5.20 log. (M)
same,ratio Ti/Pt,"MCF-7 Breast Cancer; MCF-7, relative activity of TPE as compared with cis-platinum",100
same,IC50,MCF-7 Breast Cancer; mcf-7 cells,2 µM
same,cytotoxicity (log.),MCF-7 Breast Cancer; mcf-7 cells,-5.70 log. (M)
same,ratio Ti/Pt,"UCLA-P3 Lung Carcinoma; UCLA-P3, relative activity of TPE as compared with cis-platinum",20
same,IC50,UCLA-P3 Lung Carcinoma; ucla-p3 cells,3.1 µM
same,cytotoxicity (log.),UCLA-P3 Lung Carcinoma; ucla-p3 cells,-5.51 log. (M)
same,ratio Ti/Pt,"[2]; Capan 1, relative activity of TPE as compared with cis-platinum",10
same,IC50,[2]; capan 1 cells,0.39 µM
same,cytotoxicity (log.),[2]; capan 1 cells,-6.41 log. (M)
same,ratio Ti/Pt,"[5]; CHO, relative activity of TPE as compared with cis-platinum",2
same,IC50,[5]; cho cells,13 µM
same,cytotoxicity (log.),[5]; cho cells,-4.80 log. (M)
"titanocene dichloride [TDC, reference compound]",IC50,"HL-60 B-cell Leukemia; read-out: IC50 (cytotoxic data), HL-60",1000 µM
same,CC50,"NHDF Normal Human Skin; read-out: IC50 (cytotoxic data), NHDF",1000 µM
same,IC50,"H-322 Lung Carcinoma; read-out: IC50 (cytotoxic data), H-322",1000 µM
same,IC50,"Molt-4 T-cell Leukemia; read-out: IC50 (cytotoxic data), Molt-4",1000 µM
same,anti-tumor activity,tumor,very reactive anti-tumor reagent
same,IC50,"HT-29 Colon Carcinoma; read-out: IC50 (cytotoxic data), HT-29",500 µM
same,CC50,"[3]; read-out: IC50 (cytotoxic data), HMEC",130 µM
same,CC50,"[4]; read-out: IC50 (cytotoxic data), NHEK",1000 µM
same,IC50,"P-388 Mouse Leukemia; read-out: IC50 (cytotoxic data), P-388",500 µM
same,IC50,"SK-Mel-28 Melanoma; read-out: IC50 (cytotoxic data), SK-Mel-28",1000 µM
same,IC50,"[1]; read-out: IC50 (cytotoxic data), Ovcar-3",1000 µM
same,IC50,"MCF-7 Breast Cancer; read-out: IC50 (cytotoxic data), MCF-7",1000 µM
same,IC50,"UCLA-P3 Lung Carcinoma; read-out: IC50 (cytotoxic data), UCLA-P3",1000 µM
same,IC50,"[2]; read-out: IC50 (cytotoxic data), Capan 1",500 µM
same,IC50,"[5]; read-out: IC50 (cytotoxic data), CHO",1000 µM

# — patent US5496854A, “Metallocenes as anti-tumor drugs” (Technion Research & Development Foundation Ltd., priority 1992, dated 1996)
